The subject of series [1] is acetylation of α-tubulin (HDAC6 substrate) in SH-SY5Y cells. The series can be described thus: α-tubulin acetylation by Western blot. In kind it is cell-based, human. The note with it: 5 µM, 6 h.
Series [2] concerns acetylation of histones H3 and H4 in HT-29 cells. As to the kind of experiment: histone H3 and H4 acetylation by Western blot. In kind it is cell-based, human. The note with it: HT-29, 5 µM; for time-dependent increase in acetylation of H3 and H4: 24 h.
In series [3] the test system is acetylation of histones H3 and H4 in SH-SY5Y cells. As to the kind of experiment: histone H3 and H4 acetylation by Western blot. The conditions noted are these: 5 µM; for acetylation of H3 and H4: 6 h; for time-dependent increase in acetylation of H3 and H4: 24 h. In kind it is cell-based, human.
Series [4] relates to acetylation of α-tubulin (HDAC6 substrate) in HT-29 cells. The series can be described thus: α-tubulin acetylation by Western blot. In kind it is cell-based, human. The note with it: HT-29, 5 µM; for acetylation level of α-tubulin: 6 h; for time-dependent increase in acetylation of α-tubulin: 24 h.
A further series concerns HT-29 cells. As to the kind of experiment: antiproliferative alamarBlue assay. The conditions noted are these: n=4.
The next series concerns the target recombinant human HDAC3 (Homo sapiens, UniProt O15379). As to the kind of experiment: competitive fluorescence-based HDAC deacetylase assay, Boc-L-Lys. In kind it is biochemical. The note with it: for Selectivity HDAC3/HDAC1: HDAC3 IC50 divided by HDAC1 IC50; for IC50: read-out: IC50 HDAC3, mean ± SD of at least two independent experiments.
The target of series [5] is T1, purified recombinant human HDAC8 (Homo sapiens, UniProt Q9BY41).
T1 sequence (Q9BY41 1-377): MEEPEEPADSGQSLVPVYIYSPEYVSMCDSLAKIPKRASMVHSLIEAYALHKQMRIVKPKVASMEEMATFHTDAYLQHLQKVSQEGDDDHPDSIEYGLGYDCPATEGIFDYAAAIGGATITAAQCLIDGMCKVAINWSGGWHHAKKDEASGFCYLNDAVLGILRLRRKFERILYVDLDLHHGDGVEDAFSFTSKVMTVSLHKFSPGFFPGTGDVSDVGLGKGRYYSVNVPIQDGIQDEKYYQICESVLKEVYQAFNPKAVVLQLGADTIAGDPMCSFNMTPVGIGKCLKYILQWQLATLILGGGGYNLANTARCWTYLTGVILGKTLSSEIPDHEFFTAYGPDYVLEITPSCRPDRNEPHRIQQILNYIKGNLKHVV
As to the kind of experiment: fluorescence-based HDAC8 assay, commercially available HDAC substrate. In kind it is biochemical. The conditions noted are these: for Selectivity HDAC8/HDAC1: HDAC8 IC50 divided by HDAC1 IC50; for IC50: read-out: IC50 HDAC8, mean ± SD of at least two independent experiments.

A further series has as its target recombinant human HDAC1 (Homo sapiens, UniProt Q13547). The series can be described thus: competitive fluorescence-based HDAC deacetylase assay, Boc-L-Lys. The conditions noted are these: read-out: IC50 HDAC1; mean ± SD of at least two independent experiments. In kind it is biochemical.
The next series concerns the target recombinant human HDAC2 (Homo sapiens, UniProt Q92769). The series is described as above. In kind it is biochemical. The conditions noted are these: for Selectivity HDAC2/HDAC1: HDAC2 IC50 divided by HDAC1 IC50; for IC50: read-out: IC50 HDAC2, mean ± SD of at least two independent experiments.
The next series relates to SH-SY5Y cells. The series can be described thus: antiproliferative alamarBlue assay. The conditions noted are these: n=4.
Another series relates to MCF-7 cells. As to the kind of experiment: antiproliferative alamarBlue assay. The note with it: 10 µM, NA = no inhibition at 10 µM.
The nature of series [6]: plasma and brain concentrations after i.p. dosing. In kind it is in vivo, Spraugue Dawley rats.
Series [7] can be described thus: microsomal stability. The note with it: after 30 min incubation. In kind it is in vitro ADME, rat.
Series [8] is described as follows: microsomal stability. In kind it is in vitro ADME, human. The conditions noted are these: after 30 min incubation.
The mark [9] stands for this setting: read-out: EC50 HT-29 24 h, 24 h.
Where [10] appears, read: read-out: EC50 HT-29 48 h, 48 h.
[11] abbreviates: read-out: EC50 SH-SY5Y 24 h, 24 h.
The mark [12] stands for this setting: read-out: EC50 SH-SY5Y 48 h, 48 h.

Experimental findings from paper PMC5881582 (ChemMedChem, 2017) are described below.

Read-outs that look alike come from different tables or passages of the source. A value given as a limit tells only on which side of the number the result lay.

Sequence of recombinant human HDAC3 (O15379 whole entry): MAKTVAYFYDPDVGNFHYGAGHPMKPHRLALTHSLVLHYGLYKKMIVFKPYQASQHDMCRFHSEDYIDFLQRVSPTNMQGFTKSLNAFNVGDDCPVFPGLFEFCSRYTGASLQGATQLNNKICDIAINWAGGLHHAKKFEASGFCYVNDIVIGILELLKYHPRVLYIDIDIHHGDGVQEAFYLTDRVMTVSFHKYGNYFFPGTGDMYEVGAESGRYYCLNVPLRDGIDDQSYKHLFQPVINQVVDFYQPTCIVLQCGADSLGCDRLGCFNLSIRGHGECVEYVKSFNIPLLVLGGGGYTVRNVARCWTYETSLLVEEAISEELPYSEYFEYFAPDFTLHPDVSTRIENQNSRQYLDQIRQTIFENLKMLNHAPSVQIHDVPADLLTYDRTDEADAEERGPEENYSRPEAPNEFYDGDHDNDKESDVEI
Sequence of recombinant human HDAC3 (Q9Y618 395-489 partner limits assumed): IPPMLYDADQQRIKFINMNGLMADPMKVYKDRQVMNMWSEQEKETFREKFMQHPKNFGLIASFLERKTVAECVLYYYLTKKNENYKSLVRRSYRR
Sequence of recombinant human HDAC2 (Q92769 whole entry): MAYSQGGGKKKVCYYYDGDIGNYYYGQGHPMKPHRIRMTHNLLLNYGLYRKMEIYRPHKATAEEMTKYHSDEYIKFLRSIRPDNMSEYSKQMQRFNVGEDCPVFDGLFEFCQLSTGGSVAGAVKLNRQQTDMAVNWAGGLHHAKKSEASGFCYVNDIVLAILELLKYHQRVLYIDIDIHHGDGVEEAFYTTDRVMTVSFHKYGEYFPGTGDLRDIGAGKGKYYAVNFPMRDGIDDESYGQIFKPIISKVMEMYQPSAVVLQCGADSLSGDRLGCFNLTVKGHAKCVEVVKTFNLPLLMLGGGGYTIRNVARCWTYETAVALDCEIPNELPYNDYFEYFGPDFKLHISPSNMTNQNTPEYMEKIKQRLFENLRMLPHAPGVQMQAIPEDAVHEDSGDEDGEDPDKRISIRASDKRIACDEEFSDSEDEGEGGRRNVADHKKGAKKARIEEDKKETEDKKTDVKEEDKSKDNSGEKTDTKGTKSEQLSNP
Sequence of recombinant human HDAC1 (Q13547 whole entry): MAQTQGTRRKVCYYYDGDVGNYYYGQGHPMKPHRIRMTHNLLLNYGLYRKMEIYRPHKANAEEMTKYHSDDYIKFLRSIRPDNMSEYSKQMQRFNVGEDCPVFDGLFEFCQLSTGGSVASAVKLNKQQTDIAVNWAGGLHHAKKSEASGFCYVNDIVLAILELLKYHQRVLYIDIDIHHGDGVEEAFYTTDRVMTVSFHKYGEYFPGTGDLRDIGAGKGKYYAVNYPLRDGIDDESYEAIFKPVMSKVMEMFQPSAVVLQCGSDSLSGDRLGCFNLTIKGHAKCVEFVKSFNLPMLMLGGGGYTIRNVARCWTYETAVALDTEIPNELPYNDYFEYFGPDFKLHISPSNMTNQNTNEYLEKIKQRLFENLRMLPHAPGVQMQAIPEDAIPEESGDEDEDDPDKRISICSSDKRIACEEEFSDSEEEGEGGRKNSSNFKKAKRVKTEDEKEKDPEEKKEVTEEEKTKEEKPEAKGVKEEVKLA

`O=C(CCCCCCC(=O)Nc1ccccc1)NO` [compound 1, SAHA, reference compound]: the “acetylation of α-tubulin” value in series [1] is on record as “increased the acetylation of α-tubulin”. Besides, the “acetylation level of H3” value in series [2] (6 h) is on record as “increased the acetylation level of H3”. The “time-dependent increase in acetylation of H3 and H4” value in series [2] was “unable to cause any significant time-dependent increase”. Besides, in [3], the “acetylation of H3 and H4” value was “acetylation of both H3 and H4 was increased”; the “time-dependent increase in acetylation of H3 and H4” value is “time-dependent increase in acetylation of H3 and H4 was observed”. Also, in [4], the “acetylation level of α-tubulin” value is listed as “increased the acetylation level of α-tubulin” and the “time-dependent increase in acetylation of α-tubulin” value is “time-dependent increase in acetylation of α-tubulin”.

As for `O=C(CCCCCCNCc1ccc2ccccc2c1)NO` [compound 2g], the “acetylation of α-tubulin” value in [1] was “increased the acetylation of α-tubulin”. Further, the EC50 with HT-29 cells (setting [9]) is over 50000 nM; in the series on HT-29 cells (setting [10]) it was 1100 ± 110 nM; in the series with SH-SY5Y cells (setting [11]), over 50000 nM; in the series on SH-SY5Y cells (setting [12]) it was 1200 ± 220 nM. Besides, on recombinant human HDAC3, the “Selectivity HDAC3/HDAC1” value is on record as 1.7. Moreover, the IC50 is 68 ± 2 nM on recombinant human HDAC3, 320 ± 26 nM in series [5], 39 ± 3 nM on recombinant human HDAC1 and 320 ± 13 nM on recombinant human HDAC2. The “acetylation level of H3” value in series [2] (6 h) is listed as “increased the acetylation level of H3”. Also, the “acetylation of H4” value in [2] (6 h) is “significantly increase acetylation of H4”. The “time-dependent increase in acetylation of H3 and H4” value in series [2] is “time-dependent increase in acetylation of H3 and H4 was observed”; in [3], “time-dependent increase in acetylation of H3 and H4 was observed”. Moreover, in series [5], the “Selectivity HDAC8/HDAC1” value was found to be 8.2. Besides, the “acetylation of H3 and H4” value in [3] was “acetylation of both H3 and H4 was increased”. Also, the “acetylation level of α-tubulin” value in series [4] is reported as “increased the acetylation level of α-tubulin”. Moreover, the “Selectivity HDAC2/HDAC1” value at recombinant human HDAC2 was found to be 8.2.

In the case of `O=C(CCCCCCNCc1cc2ccccc2[nH]1)NO` [compound 2j], in series [1], the “acetylation of α-tubulin” value is given as “increased the acetylation of α-tubulin”. Further, the EC50 in the series with HT-29 cells (setting [9]) is over 50000 nM. The EC50 in the series with HT-29 cells (setting [10]) was found to be 2100 ± 170 nM. Also, in the series with MCF-7 cells, the “Growth inhibition percentage MCF-7 24 h” value stood at 61%. In series [6] (20 min), the “brain concentration fold above IC50 for HDAC1” value is on record as 6.7 fold, the “brain concentration fold above IC50 for HDAC2” value was determined as 1.6 fold, the “brain concentration fold above IC50 for HDAC3” value worked out at 16 fold and the “plasma concentration fold higher than IC50 for HDAC1” value is 230 fold. In addition, in series [6] (20 min), the “plasma concentration fold higher than IC50 for HDAC2” value turned out to be 54 fold, the “plasma concentration fold higher than IC50 for HDAC3” value is 560 fold and the “plasma concentration fold higher than IC50 for HDAC8” value stood at 23 fold. For the same molecule, in series [6] (abstract), the “brain concentration fold higher than the IC50 for class I HDACs” value is listed as over 1.6 fold and the “plasma concentration fold higher than the IC50 for class I HDACs” value is over 23 fold. Also, in series [6] (rat, 25 mg/kg i.p., 20 min), the Plasma level was found to be 3820 ± 2050 ng/mL, the “molar concentration in brain” value came out at 0.41 µM, the “molar concentration in plasma” value turned out to be 14 µM and the rat brain level is reported as 122 ± 21 ng/mL. Further, in series [6] (rat, 25 mg/kg i.p., 40 min), the Plasma level is 2100 ± 720 ng/mL and the rat brain level is 107 ± 15 ng/mL. In addition, at recombinant human HDAC3, the “Selectivity HDAC3/HDAC1” value is on record as 0.41 and the IC50 turned out to be 25 ± 2 nM. Besides, in series [2] (6 h), the “acetylation level of H3” value was “increased the acetylation level of H3”. In series [2], the “time-dependent increase in acetylation of H3 and H4” value was “time-dependent increase in acetylation of H3 and H4 was observed”. Besides, in series [5], the “Selectivity HDAC8/HDAC1” value was 10 and the IC50 worked out at 620 ± 42 nM. Further, the IC50 on recombinant human HDAC1 worked out at 61 ± 5.9 nM. For the same molecule, the “percent left in RLM” value in the series “microsomal stability [7]” came out at 85%. Besides, in series [3], the “acetylation of H3 and H4” value is “acetylation of both H3 and H4 was increased”; the “time-dependent increase in acetylation of H3 and H4” value is “time-dependent increase in acetylation of H3 and H4 was observed”. For the same molecule, the “percent left in HLM” value in the series “microsomal stability [8]” came out at 12%. Also, in series [4], the “acetylation level of α-tubulin” value is on record as “increased the acetylation level of α-tubulin” and the “time-dependent increase in acetylation of α-tubulin” value is given as “time-dependent increase in acetylation of α-tubulin”. Besides, at recombinant human HDAC2, the “Selectivity HDAC2/HDAC1” value worked out at 4.2 and the IC50 came out at 260 ± 15 nM. For the same molecule, the concentration for a half-maximal effect (EC50) with SH-SY5Y cells (setting [11]) was over 50000 nM. For the same molecule, the EC50 in the series on SH-SY5Y cells (setting [12]) came out at 1300 ± 390 nM.
